Results from patent publication US7538220B2, “Intermediates in the preparation of homocamptothecin analogs” (University of Pittsburgh - of the Commonwealth System of …, priority 1999, dated 2009).

Assays:
[1] = Fluorescence anisotropy titration, equilibrium binding to DMPC small unilamellar vesicles; type: physicochemical; conditions: for KDMPC overall association constant: electroneutral DMPC vesicles, PBS pH 7.4, 37° C., K values subject to 10% uncertainty
Description: (§1) As a consequence of the brilliant fluorescence emissions from the newly synthesized homosilatecans (a summary of the spectral parameters can be found in Table 1), the lipid bilayer adsorption isotherms summarized in FIG. 4 were relatively free from any background signal. The method of fluorescence anisotropy titration was used to construct the adsorption isotherms. The experiments were conducted at drug concentrations of 1 μM in PBS buffer (37° C.). […] Because of the potential of the lactone ring of the homosilatecans and camptothecins to hydrolyze in PBS, anisotropy values at each lipid concentration were determined immediately (approx. 1 min.) following the addition of the lactone form of each agent to the liposome suspension as to minimize any possibility of conversion to the carboxylate form. Using drug concentrations of 1 μM and long pass filters to isolate emitted light from background signal (that is, scattered exciting light and extraneous fluorescence signal resulting from the possible presence of impurities), signal levels from drugs dissolved in PBS buffer were typically 99.97% in the absence of membrane and greater than 98% in the presence of membrane. Adsorption isotherms were used to determine overall association constants for the homosilatecan, silatecan, and camptothecin drugs. Overall association constants are defined as: K=[AB]/[AF][L] where [AB] represents the concentration of bound drug, [AF] represents the concentration of free drug, and [L] represents the total lipid concentration in the vesicle suspension. This equation is valid when the concentration of free lipid is approximately equal to the concentration of total lipid (that is, the concentration of free lipid is in significant excess over the concentration of bound drug). Provided this condition is satisfied, K may be determined from the inverse of the slope of a double reciprocal plot. In such a double reciprocal plot, 1/fraction of the total drug bound is plotted vs. 1/lipid concentration, with a y-intercept value of 1 (for a system displaying binding site homogeneity). Such double-reciprocal plots for the associations of the new homosilatecans analogs (both lactone and carboxylate forms) with DMPC and DMPG small unilamellar vesicle (SUV) preparations were linear with good correlation coefficients.
(§2) The studies summarized in Table 2 examine the structural basis of homosilatecan associations for lipid bilayers. Two types of membranes were included in these studies which were conducted under near physiological conditions of pH and temperature; these membranes include fluid-phase and electroneutral L-α-dimyristoylphosphatidyl-choline (DMPC); and fluid-phase and negatively-charged L-α-dimyristoylphosphatidylglycerol (DMPG). DMPC and DMPG have identical chain length but the charges on their head groups differ.
(§3) In the studies of Table 2, binding isotherms were constructed using the method of fluorescence anisotropy titration as discussed above, and K values were determined from the slopes of the double-reciprocal plots. The K values are subject to 10% uncertainty. One of the most striking features of the data contained in Table 2 is the strong modulation which can be achieved through the creation of A,B,E-ring modified camptothecins (for example, the homosilatecans known as DB-38, DB-90, and DB-91) or B,E-ring modified camptothecins (for example, the homosilatecan known as DB-81). Homosilatecans containing either a sole substitution at the 7 position or dual substitution at the 7 and 10 positions have been created and found to display very high lipophilicities. Included in Table 2 are camptothecin compounds (topotecan and camptothecin). For DB-81, the lipophilicity for DMPC membranes relative to corresponding value for topotecan increases over 1,400-fold. Data for these agents were included to show the highly lipophilic nature of the new homocamptothecins relative to compounds such as topotecan and camptothecin. […]

[2] = Fluorescence anisotropy titration, equilibrium binding to DMPG small unilamellar vesicles; type: physicochemical; conditions: negatively charged DMPG vesicles, PBS pH 7.4, 37° C.; K values subject to 10% uncertainty
Description: as §1, §2, §3

[3] = Lactone ring stability in whole human blood by HPLC; conditions: for Percent Lactone in Human Blood after 3 Hours of Incubation: pH 7.4, 37° C. (Table 4); for % Lactone: whole human blood, 1 μM
Description: All experiments were conducted at pH 7.4 and 37° C.
HPLC solvents were from Fisher Scientific.

CCC1(O)CC(=O)OCc2c1cc1n(c2=O)Cc2c-1nc1ccc(N)cc1c2[Si](C)(C)C (racemic) [DB-38, 5-Ethyl-1,4,5,13-tetrahydro-5-hydroxy-10-amino-12-trimethylsilyl-3H,15H-oxepino[3′,4′:6,7]indolizino[1,2-b]quinoline-3,15-dione]
KDMPC overall association constant [1]: 1400 M⁻¹ | KDMPG overall association constant [2]: 800 M⁻¹ | Percent Lactone in Human Blood after 3 Hours of Incubation [3]: 56% | % Lactone ([3]; 3 hours incubation, pH 7.4, 37° C.): 56.4 ± 0.6%

CCC1(O)CC(=O)OCc2c1cc1n(c2=O)Cc2c-1nc1ccc(O)cc1c2[Si](C)(C)C(C)(C)C (racemic) [DB-91, 5-Ethyl-1,4,5,13-tetrahydro-5-hydroxy-10-hydroxy-12-tert-butyldimethylsilyl-3H,15H-oxepino[3′,4′:6,7]indolizino[1,2-b]quinoline-3,15-dione]
decrease in DMPC binding upon ring opening (lactone vs carboxylate) [1]: 10 fold | KDMPG overall association constant [2]: 4300 M⁻¹ | Percent Lactone in Human Blood after 3 Hours of Incubation [3]: 85% | % Lactone ([3]; 24 hours incubation, 37° C.): 37.1 ± 1.8%

CCC1(O)CC(=O)OCc2c1cc1n(c2=O)Cc2c-1nc1ccccc1c2[Si](C)(C)C(C)(C)C (racemic) [DB-81, 5-Ethyl-1,4,5,13-tetrahydro-5-hydroxy-12-tert-butyldimethylsilyl-3H,15H-oxepino[3′,4′:6,7]indolizino[1,2-b]quinoline-3,15-dione]
increase of lipophilicity for DMPC membranes relative to topotecan ([1]; 1 μM, pH 7.4): over 1,400 fold | KDMPC overall association constant [1]: 14400 M⁻¹ | KDMPG overall association constant [2]: 18500 M⁻¹ | Percent Lactone in Human Blood after 3 Hours of Incubation [3]: 87% | % Lactone ([3]; 24 hours incubation, 37° C.): 27.0 ± 2.3%

CCC1(O)CC(=O)OCc2c1cc1n(c2=O)Cc2c-1nc1ccc(N)cc1c2[Si](C)(C)C(C)(C)C (racemic) [DB-90, 5-Ethyl-1,4,5,13-tetrahydro-5-hydroxy-10-amino-12-tert-butyldimethylsilyl-3H,15H-oxepino[3′,4′:6,7]indolizino[1,2-b]quinoline-3,15-dione]
decrease in DMPC binding upon ring opening (lactone vs carboxylate) [1]: 10 fold | KDMPC overall association constant [1]: 8600 M⁻¹ | KDMPG overall association constant [2]: 9300 M⁻¹ | Percent Lactone in Human Blood after 3 Hours of Incubation [3]: 85% | % Lactone ([3]; 24 hours incubation, 37° C.): 24.6 ± 1.3%
